For this assay, the target named is T1, β3-AR (Homo sapiens, UniProt P13945).
T1 construct: Full-length β3-AR clones (402 amino acids) containing the last 6 amino acids of hβ3-AR are prepared; expressed in transfected cells; host or cells: CHO cells
The experiment in a line: cAMP accumulation (SPA) in CHO cells transfected with β3-AR. In kind it is cell-based. The following applies: for EC50: CHO cells transfected with human β3-AR, cAMP, 30 min incubation, 10^-9 to 10^-5 M; for IA(β3): maximal response relative to maximal response of isoproterenol at 10^-5 M. How it is done:
The ability of the compounds of this invention to treat or inhibit disorders related to insulin resistance or hyperglycemia was confirmed with representative compounds of this invention in the following standard pharmacological test procedures, which measured the binding selectivity of the β1-, β2-, and β3-AR. Binding to the receptors was measured in Chinese Hamster ovary (CHO) cells that were transfected with β1-, β2-, and β3-AR's. The following briefly summarizes the procedures used and results obtained.
cDNA was constructed by ligating four polymerase chain reaction (PCR) products using the following primers: an ATG-Narl fragment, sense primer 5′-[…]3′ and anti-sense primer 5′ […]3′; a Narl-Accl fragment, 5′[…]3′ as sense and 5′[…]3′ as anti-sense primer; an Accli-Styl fragment, sense primer 5° […]3′ and anti-sense primer 5′[…]3′ and a Styl-TAG fragment, with sense primer 5° […]3′ and anti-sense primer 5° […]3′. The corresponding primer sequences are described in Mantzoros, C. S., et.al., Diabetes, 1996, 45, 909-914. The four fragments are ligated into a pUC 18 plasmid (Gibco-BRL) and sequenced. Full-length β3-AR clones (402 amino acids) containing the last 6 amino acids of hβ3-AR are prepared with the β3-βARpcDNA3 from ATTC.
Clones expressing receptor levels of 70 to 110 fmoles/mg protein were used in the test procedures. CHO cells were grown in 24-well tissue culture plates in Dulbecco's Modified Eagle Media with 10% fetal bovine serum, MEM non-essential amino acids, Penicillin-Streptomycin and Geneticin. On the day of test procedure, growth medium was replaced with preincubation media (Dulbecco's Modified Eagle Media) and incubated for 30 minutes at 37° C. Pre-incubation medium was replaced with 0.2 ml treatment medium containing DMEM media containing 250 μM IBMX (isobutyl-1-methylxantine) plus 1 mM ascorbic acid with test compound dissolved in DMSO. Test compounds were assayed over a concentration range of 10^−9 M to 10^−5M for β3-AR transfected cells and 10^−8 to 10^−4 M for […] transfected cells. Isoproterenol (10^−5 M) was used as an internal standard for comparison of activity. Cells were incubated at 37° C. on a rocker for 30 min with the β3-AR transfected cells and 15 min with β1-AR and β2-AR transfected cells. Incubation was stopped by the addition of 0.2N HCl and the acid was neutralized with 2.5N NaOH. The plates, containing the cells and neutralized media, were stored at −20° C. until ready to test for cAMP using the SPA test kit (Amersham).
Data collected from the SPA test procedure were analyzed as percent of the maximal isoproterenol response at 10^−5 M. Activity curves were plotted using the SAS statistical and graphics software.

T1 sequence (P13945 whole entry): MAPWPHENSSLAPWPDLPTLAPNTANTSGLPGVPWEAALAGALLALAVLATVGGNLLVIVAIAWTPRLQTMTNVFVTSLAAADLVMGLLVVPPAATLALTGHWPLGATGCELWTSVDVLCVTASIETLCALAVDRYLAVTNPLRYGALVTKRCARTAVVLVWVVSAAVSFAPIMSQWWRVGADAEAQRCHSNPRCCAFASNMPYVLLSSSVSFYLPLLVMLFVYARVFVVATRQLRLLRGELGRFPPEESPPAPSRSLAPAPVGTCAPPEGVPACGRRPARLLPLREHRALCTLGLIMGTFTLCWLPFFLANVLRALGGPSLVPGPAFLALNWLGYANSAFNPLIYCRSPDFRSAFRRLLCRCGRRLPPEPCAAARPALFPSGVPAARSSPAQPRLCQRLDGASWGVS

In the case of `COC(=O)CC1Cc2ccc(-c3ccc(CNC[C@H](O)c4ccc(O)c(NS(C)(=O)=O)c4)cc3)cc2NC1=O` (stereo partly drawn) [Example 1, [7-(4-{[(2R)-2-Hydroxy-2-(4-hvdroxy-3-methanesulfonylamino-phenyl)-ethylamino]-methyl}-phenyl)-2-oxo-1,2,3,4-tetrahydro-quinolin-3-yl]-acetic Acid Methyl Ester], the EC50 was determined as 0.04 µM and the “IA(β3)” value came to 1.1.
Take “Ethyl [6-(4-{[(2R)-2-hydroxy-2-{4-hydroxy-3-[(methylsulfonyl)amino]-phenyl}ethyl)amino]methyl}phenyl)-2-oxo-1,2,3,4-tetrahydroquinolin-3-yl]acetate [Example 4]”: the EC50 amounted to 0.07 µM and the “IA(β3)” value was 1.0.
For `CCOC(=O)CC1Cc2cc(-c3cccc(CNC[C@H](O)c4ccc(O)c(NS(C)(=O)=O)c4)c3)ccc2NC1=O` (some centres unmarked) [Example 2], the EC50 was determined as 0.09 µM and the “IA(β3)” value is on record as 1.0.
`COC(=O)CC1Cc2ccc(-c3cccc(CNC[C@H](O)c4ccc(O)c(NS(C)(=O)=O)c4)c3)cc2NC1=O` (stereo partly drawn) [Example 3, [7-(3-{[(2R)-2-Hydroxy-2-(4-hydroxy-3-methanesulfonylamino-phenyl)-ethylamino]-methyl}-phenyl)-2-oxo-1,2,3,4-tetrahydro-quinolin-3-yl]-acetic acid methyl ester]: the EC50 worked out at 0.06 µM and the “IA(β3)” value is given as 1.0.
